Assays:
YAP-TEAD interaction = assay: SK-HEP-1 reporter assay (8xTEAD responsive elements driving NanoLuc luciferase); assay type: cell-based; settings: Homo sapiens, SK-HEP1, SK-HEP-1 reporter assay
How it was run: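 Reporter read-out: NanoLuc luminescence from 8×TEAD elements stably integrated in SK-HEP-1 cells, after 24 h compound exposure at 37° C. Ten concentrations tested in duplicate, top 30 μM final, 0.3% DMSO; IC50 from curve.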

SW620 Yap KO cells = assay: Viability assay in SW620 Yap KO (Yap independent) cells, CyQuant; assay type: cell-based; settings: Homo sapiens, SW-620, 96 h
How it was run: (§1)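 Seeded cells were dosed 24 h later in duplicate (10-point, 1:3 dilutions, top 30 μM final, 0.3% DMSO) and incubated 96 h at 37 °C. Viability was read with CyQUANT DNA dye after 1 h, fluorescence bottom read. NCI-H226 in RPMI 1640 medium; SW620 YAP/TAZ CRISPR knockout in DMEM/F-12 medium.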

NCI-H226 cells = assay: Viability assay in NCI-H226 (Yap-dependent) cells, CyQuant; assay type: cell-based, human; settings: Homo sapiens, NCI-H226, 96 h, class symbols
How it was run: as §1

[1] = n.d. = value not detectable below threshold given in parentheses, ND = not determinable within the entire range
[2] = n.d. = value not detectable below threshold given in parentheses

Row | Structure (SMILES) | IC50 (YAP-TEAD interaction; class symbols) | IC50 (SW620 Yap KO cells; [1]) | IC50 (NCI-H226 cells) | IC50 (YAP-TEAD interaction; [1]) | IC50 (SW620 Yap KO cells; class symbols) | IC50 (SW620 Yap KO cells; [2])
1 | C[C@@H](NC(=O)c1ccc2c(c1)c1cn(C)nc1n2-c1ccc(C(F)(F)F)cc1)c1ccncc1 [Example C122, 2-methyl-N-[(1R)-1-(pyridin-4-yl)ethyl]-8-[4-(trifluoromethyl)phenyl]-2H,8H-pyrazolo[3,4-b]indole-5-carboxamide] | 10 to 100 nM | > 30000 nM | 100 to 1000 nM | – | – | –
2 | CNC(=O)c1ccc2c(c1)c1cn(C)nc1n2C12CC(C(F)(F)F)(C1)C2 [Example C125, N,2-dimethyl-8-[3-(trifluoromethyl)bicyclo[1.1.1]pentan-1-yl]-2H,8H-pyrazolo[3,4-b]indole-5-carboxamide] | 10 to 100 nM | > 3000 nM | 100 to 1000 nM | – | – | –
3 | Cn1cc2c3cc(C(=O)O)ccc3n(-c3ccc(C(F)(F)F)cn3)c2n1 [Example C126, 2-methyl-8-[5-(trifluoromethyl)pyridin-2-yl]-2H,8H-pyrazolo[3,4-b]indole-5-carboxylic acid] | 10 to 100 nM | > 3000 nM | 100 to 1000 nM | – | – | –
4 | Cc1ccc(-n2c3ccc(C(=O)N[C@H](C)CO)cc3c3cn(C)nc32)cc1 [Example C131, N-[(2R)-1-hydroxypropan-2-yl]-2-methyl-8-(4-methylphenyl)-2H,8H-pyrazolo[3,4-b]indole-5-carboxamide] | 100 to 10000 nM | > 30000 nM | 100 to 1000 nM | – | – | –
5 | Cn1nc2c3cc(C(=O)NCc4ccccc4)ccc3n(-c3ccc(C(F)(F)F)cc3)c2n1 [Example C134, N-benzyl-2-methyl-4-[4-(trifluoromethyl)phenyl]-2H,4H-[1,2,3]triazolo[4,5-b]indole-7-carboxamide] | 10 to 100 nM | > 30000 nM | 1 to 100 nM | – | – | –
6 | CNC(=O)c1ccc2c(c1)c1cn(C)nc1n2-c1ccc(C(F)(F)F)cn1 [Example C147, N,2-dimethyl-8-[5-(trifluoromethyl)pyridin-2-yl]-2H,8H-pyrazolo[3,4-b]indole-5-carboxamide] | 10 to 100 nM | > 30000 nM | 1 to 100 nM | – | – | –
7 | C[C@H](CO)NC(=O)c1ccc2c(c1)c1cn(C)nc1n2-c1ccc(C(F)(F)F)cn1 [Example C148, N-[(2R)-1-hydroxypropan-2-yl]-2-methyl-8-[5-(trifluoromethyl)pyridin-2-yl]-2H,8H-pyrazolo[3,4-b]indole-5-carboxamide] | 10 to 100 nM | > 30000 nM | 1 to 100 nM | – | – | –
8 | Cn1cc2c3cc(C(=O)N=S(C)(C)=O)ccc3n(-c3ccc(C(F)(F)F)cn3)c2n1 [Example C149, N-[dimethyl(oxo)-λ^6-sulfanylidene]-2-methyl-8-[5-(trifluoromethyl)pyridin-2-yl]-2H,8H-pyrazolo[3,4-b]indole-5-carboxamide] | – | > 30000 nM | 1 to 100 nM | > 320 nM | – | –
9 | Cn1cc2c3cc(C(=O)N[C@@H](CO)c4ccccn4)ccc3n(-c3ccc(C(F)(F)F)cn3)c2n1 [Example C150, N-[(1R)-2-hydroxy-1-(pyridin-2-yl)ethyl]-2-methyl-8-[5-(trifluoromethyl)pyridin-2-yl]-2H,8H-pyrazolo[3,4-b]indole-5-carboxamide] | 10 to 100 nM | – | 1 to 100 nM | – | 10000 to 30000 nM | –
10 | C[C@@H](CO)C(=O)Nc1ccc2c(c1)c1cn(C)nc1n2-c1ccc(C(F)(F)F)cc1 [Example C153, (2S)-3-hydroxy-2-methyl-N-{2-methyl-8-[4-(trifluoromethyl)phenyl]-2H,8H-pyrazolo[3,4-b]indol-5-yl}propanamide] | 10 to 100 nM | > 30000 nM | 1 to 100 nM | – | – | –
11 | CON(C)C(=O)c1ccc2c(c1)c1cn(C)nc1n2-c1ccc(C(F)(F)F)cc1 [Example C156, N-methoxy-N,2-dimethyl-8-[4-(trifluoromethyl)phenyl]-2H,8H-pyrazolo[3,4-b]indole-5-carboxamide] | 10 to 100 nM | > 30000 nM | 1 to 100 nM | – | – | –
12 | Cn1nc2c3cc(C(=O)NC[C@H](O)C(F)(F)F)ccc3n(-c3ccc(C(F)(F)F)cc3)c2n1 [Example C159, 2-methyl-N-[(2S)-3,3,3-trifluoro-2-hydroxypropyl]-4-[4-(trifluoromethyl)phenyl]-2H,4H-[1,2,3]triazolo[4,5-b]indole-7-carboxamide] | 10 to 100 nM | > 3000 nM | 1 to 100 nM | – | – | –
13 | Cn1nc2c3cc(C(=O)NC[C@@H](O)C(F)(F)F)ccc3n(-c3ccc(C(F)(F)F)cc3)c2n1 [Example C160, 2-methyl-N-[(2R)-3,3,3-trifluoro-2-hydroxypropyl]-4-[4-(trifluoromethyl)phenyl]-2H,4H-[1,2,3]triazolo[4,5-b]indole-7-carboxamide] | 10 to 100 nM | > 30000 nM | 1 to 100 nM | – | – | –
14 | Cn1cc2c3cc(C(=O)O)ccc3n(-c3ccc(C(F)(F)F)c(F)c3)c2n1 [Example C164, 8-[3-fluoro-4-(trifluoromethyl)phenyl]-2-methyl-2H,8H-pyrazolo[3,4-b]indole-5-carboxylic acid] | 10 to 100 nM | – | 1 to 100 nM | – | – | > 30000 nM
15 | CNC(=O)c1ccc2c(c1)c1cn(C)nc1n2-c1ccc(C(F)(F)F)c(F)c1 [Example C166, 8-[3-fluoro-4-(trifluoromethyl)phenyl]-N,2-dimethyl-2H,8H-pyrazolo[3,4-b]indole-5-carboxamide] | 10 to 100 nM | – | 1 to 100 nM | – | – | > 3200 nM
16 | C[C@H](CO)NC(=O)c1ccc2c(c1)c1cn(C)nc1n2-c1ccc(C(F)(F)F)c(F)c1 [Example C167, 8-[3-fluoro-4-(trifluoromethyl)phenyl]-N-[(2R)-1-hydroxypropan-2-yl]-2-methyl-2H,8H-pyrazolo[3,4-b]indole-5-carboxamide] | 10 to 100 nM | – | 1 to 100 nM | – | – | > 30000 nM
17 | Cn1cc2c3cc(C(=O)N=S(C)(C)=O)ccc3n(-c3ccc(C(F)(F)F)c(F)c3)c2n1 [Example C168, N-[dimethyl(oxo)-lambda6-sulfanylidene]-8-[3-fluoro-4-(trifluoromethyl)phenyl]-2-methyl-2H,8H-pyrazolo[3,4-b]indole-5-carboxamide] | 10 to 100 nM | – | 1 to 100 nM | – | – | > 3200 nM
18 | Cn1cc2c3cc(C(=O)N[C@@H](CO)c4ccccn4)ccc3n(-c3ccc(C(F)(F)F)c(F)c3)c2n1 [Example C169, 8-[3-fluoro-4-(trifluoromethyl)phenyl]-N-[(1R)-2-hydroxy-1-(pyridin-2-yl)ethyl]-2-methyl-2H,8H-pyrazolo[3,4-b]indole-5-carboxamide] | 10 to 100 nM | – | 1 to 100 nM | – | – | > 3200 nM
19 | Cn1cnc2c1c1cc(C=O)ccc1n2-c1ccc(C(F)(F)F)cc1 [Example C174, 1-methyl-4-[4-(trifluoromethyl)phenyl]-1H,4H-imidazo[4,5-b]indole-7-carbaldehyde] | 10 to 100 nM | – | 1 to 100 nM | – | – | > 30000 nM
20 | C[C@@H](NC(=O)c1ccc2c(c1)c1nn(C)nc1n2-c1ccc(C(F)(F)F)cc1)c1ccccn1 [Example C176, 2-methyl-N-[(1R)-1-(pyridin-2-yl)ethyl]-4-[4-(trifluoromethyl)phenyl]-2H,4H-[1,2,3]triazolo[4,5-b]indole-7-carboxamide] | 10 to 100 nM | – | 100 to 1000 nM | – | – | > 30000 nM
21 | C[C@@H](NC(=O)c1ccc2c(c1)c1nn(C)nc1n2-c1ccc(C(F)(F)F)cc1)c1ccncc1 [Example C180, 2-methyl-N-[(1R)-1-(pyridin-4-yl)ethyl]-4-[4-(trifluoromethyl)phenyl]-2H,4H-[1,2,3]triazolo[4,5-b]indole-7-carboxamide] | 10 to 100 nM | – | 1 to 100 nM | – | – | > 30000 nM
22 | C[C@@H](NC(=O)c1ccc2c(c1)c1nn(C)nc1n2-c1ccc(C(F)(F)F)cc1)c1cccc(N)n1 [Example C181, N-[(1R)-1-(6-aminopyridin-2-yl)ethyl]-2-methyl-4-[4-(trifluoromethyl)phenyl]-2H,4H-[1,2,3]triazolo[4,5-b]indole-7-carboxamide] | 10 to 100 nM | – | 1 to 100 nM | – | – | > 3000 nM
23 | Cn1cc2c3cc(CO)ccc3n(-c3ccc(C(F)(F)F)cc3)c2n1 [Example C182, {2-methyl-8-[4-(trifluoromethyl)phenyl]-2H,8H-pyrazolo[3,4-b]indol-5-yl}methanol] | 10 to 100 nM | – | 100 to 1000 nM | – | – | > 30000 nM
24 | C[C@H](NC(=O)c1ccc2c(c1)c1nn(C)nc1n2-c1ccc(C(F)(F)F)cc1)c1cccc(N)n1 [Example C183, N-[(1S)-1-(6-aminopyridin-2-yl)ethyl]-2-methyl-4-[4-(trifluoromethyl)phenyl]-2H,4H-[1,2,3]triazolo[4,5-b]indole-7-carboxamide] | 100 to 10000 nM | – | 1 to 100 nM | – | – | > 3000 nM
25 | C[C@H](NC(=O)c1ccc2c(c1)c1nn(C)nc1n2-c1ccc(C(F)(F)F)cc1)c1ccccn1 [Example C184, 2-methyl-N-[(1S)-1-(pyridin-2-yl)ethyl]-4-[4-(trifluoromethyl)phenyl]-2H,4H-[1,2,3]triazolo[4,5-b]indole-7-carboxamide] | 10 to 100 nM | – | 1 to 100 nM | – | – | > 30000 nM
26 | C[C@H](NC(=O)c1ccc2c(c1)c1nn(C)nc1n2-c1ccc(C(F)(F)F)cc1)c1ccncc1 [Example C185, 2-methyl-N-[(1S)-1-(pyridin-4-yl)ethyl]-4-[4-(trifluoromethyl)phenyl]-2H,4H-[1,2,3]triazolo[4,5-b]indole-7-carboxamide] | 10 to 100 nM | – | 1 to 100 nM | – | – | > 3000 nM

Source: patent US20240270748A1 (Merck Patent GmbH, priority 2021, published 2024)
